# Assay results: patent publication US20220259252A1, “4'-ETHYNYL-2'-DEOXYADENOSINE DERIVATIVES AND THEIR USE IN HIV THERAPY” (priority 2019, published 2022)
# Experiments:
# [1] = test system: HIV pseudotyped virus (NL4-3 provirus, luciferase reporter), M184V, in U373 cells expressing human CD4 and CXCR4 or CCR5; type: cell-based; details: PSV assay, luciferase signal after 3 days
# [2] = test system: HIV pseudotyped virus (NL4-3 provirus, luciferase reporter), WT, in U373 cells expressing human CD4 and CXCR4 or CCR5; test: Pseudotyped virus (PSV) assay, WT; details: Human immunodeficiency virus 1, NL43, U373 MG, 72 h, read-out: WT IC50
# Text: A pseudotyped virus assay (PSV) was used to assess the potency of the HIV inhibitor. Replication defective virus was produced by co-transfection of a plasmid containing an NL4-3 provirus [containing a mutation in the envelope open reading frame (ORF) and a luciferase reporter gene replacing the nef ORF] and a CMV-promoter expression plasmid containing an ORF for various HIV gp160 envelope clones. The harvested virus was stored at −80 C in small aliquots and the titer of the virus measured to produce a robust signal for antiviral assays.
# The PSV assay was performed by using U373 cells stably transformed to express human CD4, the primary receptor for HIV entry and either human CXCR4 or human CCR5 which are the co-receptors required for HIV entry as target cells for infection. […] This dose-range was applied to U373 cells and the pre-made pseudotyped virus added. The amount of luciferase signal produced after 3 days of culture was used to reflect the level of pseudotyped virus infection. An IC50, or the concentration of inhibitor required to reduce PSV infection by 50% from the infection containing no inhibitor was calculated. […] IC50 values were determined from a 10 point dose response curve using 3-4-fold serial dilution for each compound, which spans a concentration range >1000 fold.
# These values are plotted against the molar compound concentrations using the standard four parameter logistic equation:
# y=((V max*x^n)/(K^n+x^n)+Y2
# Y2=minimum y n=slope factor
# Vmax=maximum y x=compound concentration [M]
structure (smiles),measurement,setting,value
"C#C[C@]1(CO)O[C@@H](n2cnc3c(N)nc(F)nc32)C[C@@H]1O [EFdA, 4′-ethynyl-2-fluoro-2′-deoxyadenosine, reference compound]",IC50,[1],0.0351 µM
same,IC50,[2],0.0065 µM
"C#C[C@]1(CO)O[C@@H](n2cnc3c(N)nc(F)nc32)C[C@@H]1OC(=O)CNC(=O)CCCCCC [Example 6, (2R,3S,5R)-5-(6-amino-2-fluoro-9H-purin-9-yl)-2-ethynyl-2-(hydroxymethyl)tetrahydrofuran-3-yl heptanoylglycinate]",IC50,[1],0.0114 µM
same,IC50,[2],0.0022 µM
"C#C[C@]1(CO)O[C@@H](n2cnc3c(N)nc(F)nc32)C[C@@H]1OC(=O)COCCOCCOC [Example 5, (2R,3S,5R)-5-(6-amino-2-fluoro-9H-purin-9-yl)-2-ethynyl-2-(hydroxymethyl)tetrahydrofuran-3-yl 2-(2-(2-methoxyethoxy)ethoxy)acetate]",IC50,[1],0.0221 µM
same,IC50,[2],0.0055 µM
"C#C[C@]1(CO)O[C@@H](n2cnc3c(N)nc(F)nc32)C[C@@H]1OC(=O)CCCC(=O)OC(COC(=O)CCCCCCCCCCCCC)COC(=O)CCCCCCCCCCCCC [Example 8, (2R,3S,5R)-5-(6-amino-2-fluoro-9H-purin-9-yl)-2-ethynyl-2-(hydroxymethyl)tetrahydrofuran-3-yl (1,3-bis(tetradecanoyloxy)propan-2-yl) glutarate]",IC50,[1],15 µM
same,IC50,[2],1.86 µM
"C#C[C@]1(CO)O[C@@H](n2cnc3c(N)nc(F)nc32)C[C@@H]1OC(=O)CCCCCCCCC(=O)O [Example 1, 10-(((2R,3S,5R)-5-(6-amino-2-fluoro-9H-purin-9-yl)-2-ethynyl-2-(hydroxymethyl)tetrahydrofuran-3-yl)oxy)-10-oxodecanoic Acid]",IC50,[1],0.348 µM
same,IC50,[2],0.0784 µM
"C#C[C@]1(CO)O[C@@H](n2cnc3c(N)nc(F)nc32)C[C@@H]1OC(=O)COCCOC [Example 4, (2R,3S,5R)-5-(6-amino-2-fluoro-9H-purin-9-yl)-2-ethynyl-2-(hydroxymethyl)tetrahydrofuran-3-yl 2-(2-methoxyethoxy)acetate]",IC50,[1],0.0259 µM
same,IC50,[2],0.0038 µM
"C#C[C@]1(CO)O[C@@H](n2cnc3c(N)nc(F)nc32)C[C@@H]1OC(=O)CCCC(=O)OC(COC(=O)CCCCCC)COC(=O)CCCCCC [Example 7, (2R,3S,5R)-5-(6-amino-2-fluoro-9H-purin-9-yl)-2-ethynyl-2-(hydroxymethyl)tetrahydrofuran-3-yl (1,3-bis(heptanoyloxy)propan-2-yl) glutarate]",IC50,[1],1.19 µM
same,IC50,[2],0.232 µM
"C#C[C@]1(CO)O[C@@H](n2cnc3c(N)nc(F)nc32)C[C@@H]1OC(=O)CCCCCCCCCCCCC(=O)O [Example 3, 14-(((2R,3S,5R)-5-(6-amino-2-fluoro-9H-purin-9-yl)-2-ethynyl-2-(hydroxymethyl)tetrahydrofuran-3-yl)oxy)-14-oxotetradecanoic Acid]",IC50,[1],0.0244 µM
same,IC50,[2],0.0054 µM
"C#C[C@]1(CO)O[C@@H](n2cnc3c(N)nc(F)nc32)C[C@@H]1OC(=O)CCCCCCCCCCCCCCCCCCC(=O)O [Example 2, 20-(((2R,3S,5R)-5-(6-amino-2-fluoro-9H-purin-9-yl)-2-ethynyl-2-(hydroxymethyl)tetrahydrofuran-3-yl)oxy)-20-oxoicosanoic Acid]",IC50,[1],0.0357 µM
same,IC50,[2],0.0064 µM
